Patent US20260174814A1 (DR. OREGONIN INC., priority 2023, published 2026)

Assay: Protective effect on dexamethasone-induced myotube cell damage (MTT assay)
Type: cell-based
Details: mouse, C2C12 cells differentiated into myotubes, 5 μM dexamethasone alone, read-out: decrease of cell viability compared to the control group not treated with dexamethasone
Description: C2C12 cells, a myoblast derived from mouse skeletal muscle, were purchased from American Type Culture Collection (ATCC) and used. C2C12 cells were cultured in a 37° C.-wet CO2 incubator (5% CO2/95% air) using a cell culture medium in which 10% fetal bovine serum (FBS), 100 units/mL penicillin, and 100 μg/mL streptomycin were added to Dulbecco's Modified Eagle Medium (DMEM). When the cells were 80% full, the cell monolayer was washed with phosphate buffer saline (PBS, pH 7.4), trypsin-2.65 mM EDTA was added thereto, and the cells were detached and subcultured, and the medium was exchanged every 2 days. In order to induce differentiation into myotubes of C2C12 cells, the cells were cultured by exchange with a myocyte differentiation culture medium in which 2% horse serum (HS) was added to DMEM medium, and the myocyte differentiation culture medium was exchanged every 2 days.
C2C12 cells were seeded in 24-well plate at 5×10^4 cells/well and cultured for 24 hours. Thereafter, in order to induce differentiation into myotubes of C2C12 cells, the cell culture medium was exchanged with the myocyte differentiation culture medium to induce differentiation for 4 days. […] After the cells were cultured for 24 hours, MTT assay was performed in the same manner as described above to measure the cell viability.

C[C@@H]1C[C@H]2[C@@H]3CCC4=CC(=O)C=C[C@]4(C)[C@@]3(F)[C@@H](O)C[C@]2(C)[C@@]1(O)C(=O)CO [dexamethasone]
cytotoxicity at 24 h, 5 μM: ~10%
